Laboratory results from PubChem BioAssay (NCI).
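Where inhibition never reached the appropriate level, the endpoint shown equals the highest concentration tested. Otherwise, values were interpolated linearly from a five-concentration, 48-hour dose response in 96-well plates. Here, GI50 denotes the concentration required for 50% inhibition of growth. At the TGI there is no net growth.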

Columns and labels:
Test in all cases: DTP human tumour cell line panel, 48 h
OVCAR-8 ovarian = system: OVCAR-8 ovarian
M14 melanoma = system: M14 melanoma
UO-31 renal = system: UO-31 renal
786-0 renal = system: 786-0 renal
SF-539 CNS = system: SF-539 CNS
SK-MEL-2 melanoma = system: SK-MEL-2 melanoma
OVCAR-5 ovarian = system: OVCAR-5 ovarian
K-562 leukemia = system: K-562 leukemia
HL-60(TB) leukemia = system: HL-60(TB) leukemia
PC-3 prostate = system: PC-3 prostate

| SMILES | GI50 (OVCAR-8 ovarian) [µM] | TGI (OVCAR-8 ovarian) [µM] | GI50 (M14 melanoma) [µM] | TGI (M14 melanoma) [µM] | GI50 (UO-31 renal) [µM] | TGI (UO-31 renal) [µM] | GI50 (786-0 renal) [µM] | TGI (786-0 renal) [µM] | GI50 (SF-539 CNS) [µM] | TGI (SF-539 CNS) [µM] | GI50 (SK-MEL-2 melanoma) [µM] | TGI (SK-MEL-2 melanoma) [µM] | GI50 (OVCAR-5 ovarian) [µM] | TGI (OVCAR-5 ovarian) [µM] | GI50 (K-562 leukemia) [µM] | TGI (K-562 leukemia) [µM] | GI50 (HL-60(TB) leukemia) [µM] | TGI (HL-60(TB) leukemia) [µM] | GI50 (PC-3 prostate) [µM] | TGI (PC-3 prostate) [µM] |
| --- | --- | --- | --- | --- | --- | --- | --- | --- | --- | --- | --- | --- | --- | --- | --- | --- | --- | --- | --- | --- |
| O=C([CH-]C(=O)c1ccccc1)c1ccccc1.O=C([CH-]C(=O)c1ccccc1)c1ccccc1.O=C([CH-]C(=O)c1ccccc1)c1ccccc1.[Ga+3] | > 100 | > 100 | 37.6 | > 100 | 30.2 | > 100 | > 100 | > 100 | 33.9 | > 100 | 43.8 | > 100 | > 100 | > 100 | 30.9 | > 100 | 20.5 | > 100 | – | – |
| COc1cc2c(c3oc(-c4ccc(O)cc4)c(O)c(=O)c13)CCC(C)(C)O2 | 0.292 | 0.856 | 0.212 | 0.523 | 0.0281 | 0.075 | 0.0788 | 0.214 | 0.0241 | 0.0586 | 0.326 | – | 0.229 | 0.622 | 0.112 | – | – | – | 1.17 | > 100 |
| COc1ccc(C2=NN(C(N)=S)C(c3ccc4c(c3)OCO4)C2)cc1 (stereo not drawn) | 3.29 | 22.9 | 3.77 | 35.4 | 1.91 | 7.99 | 3.8 | > 100 | 2.12 | 5.21 | 3.12 | 38.9 | 2.79 | 21.9 | 2.89 | > 100 | – | – | 4.33 | > 100 |
| NS(=O)(=O)c1ccc(N(/C=C/C(=O)C(F)(F)F)CC(=O)c2ccc(F)cc2)cc1 | 42.3 | > 100 | – | – | 31.9 | > 100 | 44.7 | > 100 | 20.9 | 43 | 26.1 | 55.2 | 28.8 | 74.4 | 14 | 54.6 | – | – | 22.7 | 81.2 |
| O=C1C=C(Nc2ccccc2)c2ccccc2C1=O | 2.71 | 12.8 | 1.96 | 3.65 | 1.71 | 4.48 | 5.17 | 18.9 | 1.81 | 3.47 | – | – | 1.85 | 3.33 | 2.64 | 7.81 | 2.82 | 7.83 | – | – |
| COc1ccc(C(=O)C(C(=O)CCC(=O)Nc2ccc(Cl)c(Cl)c2)c2ccc(OC)cc2)cc1 (stereo not drawn) | – | > 100 | – | > 100 | – | > 100 | – | > 100 | – | > 100 | – | > 100 | – | > 100 | – | > 100 | – | > 100 | – | – |
| C/C(CN1C(=O)c2ccccc2C1=O)=N\NS(=O)(=O)c1ccc2ccccc2c1 | – | > 100 | – | > 100 | – | > 100 | – | > 100 | – | > 100 | – | > 100 | – | > 100 | – | > 100 | – | > 100 | – | – |
| Cc1ccc(S(=O)c2ccccc2[N+](=O)[O-])cc1 (stereo not drawn) | – | > 100 | – | > 100 | – | > 100 | – | > 100 | – | > 100 | – | > 100 | – | > 100 | – | > 100 | – | > 100 | – | – |
| C[C@@H]1C(=O)CC2C(C)(C)CCC[C@]2(C)[C@@]12CC[C@]1(C=COC1)O2 (stereo partly drawn) | – | > 100 | – | > 100 | – | > 100 | – | > 100 | – | > 100 | – | 44.3 | – | > 100 | – | 80.4 | – | 42.3 | – | – |
| C/C(=C\C(=O)O[C@H]1[C@@H]2[C@H](C)CC[C@H]2[C@]2(C)O[C@@]1(C1CCCCC1)C[C@H]2OC(=O)CO)c1ccccc1 | 4.27 | 10.7 | 7.95 | 18.1 | – | – | 5.11 | 10.6 | 7.1 | 13.2 | 7.05 | 13.4 | 7 | 12.9 | 7.82 | 17.6 | 5.04 | 13.1 | 5.05 | 10.9 |
| CN(C)CCC(N)(P(=O)([O-])[O-])P(=O)([O-])[O-].N.N.[Pt+2] | > 100 | > 100 | > 100 | > 100 | > 100 | > 100 | > 100 | > 100 | > 100 | > 100 | > 100 | > 100 | > 100 | > 100 | > 100 | > 100 | > 100 | > 100 | – | – |
| NC(N)NCCCc1cn2c(n1)C1CCCN1C(=O)C2Cc1ccccc1 (stereo not drawn) | – | > 100 | – | > 100 | – | > 100 | – | > 100 | – | > 100 | – | > 100 | – | > 100 | – | > 100 | – | – | – | – |
| CN(C)CC1CC/C(=C\c2ccc(Cl)c(Cl)c2)C1=O (stereo not drawn) | – | > 58.9 | – | 48.5 | – | > 55.9 | – | 26.7 | – | > 55.7 | – | > 62.9 | – | > 86.8 | – | > 27.1 | – | 4.68 | – | – |
| O=C(CCc1nnc2s/c(=C\c3ccc([N+](=O)[O-])cc3)c(=O)n12)Nc1ccc(Cl)c(Cl)c1 | – | 38.9 | – | 45 | – | > 100 | – | 35.7 | – | 32.2 | – | 73.9 | – | > 100 | – | 63.9 | – | 44.3 | – | – |
| CC(=O)/C(=C\c1ccc(Cl)cc1)c1ccccc1 | 0.304 | > 100 | – | – | 1.02 | > 57.9 | 0.128 | > 100 | – | – | 0.141 | > 100 | – | > 100 | 0.0501 | > 100 | 0.0307 | 0.117 | 0.0852 | > 100 |
| CC(=O)C1(O)CC2(c3ccccc3)C(=O)C1(c1ccccc1)C(c1ccccc1)=C2c1ccccc1 (stereo not drawn) | – | > 100 | – | > 100 | – | > 100 | – | > 100 | – | > 100 | – | – | – | > 100 | – | > 100 | – | > 100 | – | – |
| CCOC(=O)c1noc2c1CCc1c-2cn(Cc2ccc(OC)cc2)c1-c1cc(OC)c(OC)c(OC)c1 | 3.04 | > 100 | 0.41 | > 100 | 3.44 | > 100 | 3.65 | > 100 | 1.84 | 6.56 | 4.29 | > 100 | 4.72 | > 100 | – | – | 0.452 | 4.89 | 2.9 | > 100 |
